Data as given in patent US11072588B2, “Barbituric acid derivatives comprising cationic and lipophilic groups” (UNIVERSITETET I TROMSØ—NORGES ARKTISKE UNIVERSITET, priority 2017, dated 2021).
≈ marks a conversion by molar mass, not a printed value. Like-named read-outs stand apart in the source and are kept apart here.

What was measured:
Assay type in all cases: cell-based
[1] = test system: Corynebacterium glutamicum ATCC 13032; experiment: MIC assay, antibiotic susceptible reference strain; conditions: Corynebacterium glutamicum, ATCC13032, read-out: Antimicrobial activity (MIC) C. g
Procedure, shortened: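 Broth microdilution followed CLSI M07-A9 with modifications: inoculum ~2.5-3×10^4 cells/mL in Mueller-Hinton broth, mixed 1:1 with test derivative, incubated 48 h at 35 °C. MIC was the lowest concentration giving no growth by OD600, tested in three parallels, with oxytetracycline as reference antibiotic.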

[2] = test system: antibiotic susceptible Gram-positive and Gram-negative reference strains; experiment: MIC assay, ranges over the reference strains
Procedure: Working solutions of the test derivatives were prepared with up to 100% DMSO and stored at −20° C. If necessary, the solutions were heated to 40-80° C. before testing to facilitate complete dissolution. Double-distilled water was used in all dilutions prepared. […] A microdilution susceptibility test was used for MIC determination according to Clinical and Laboratory Standards Institute, “Methods for Dilution Antimicrobial Sisceptibility Tests for Bacteria That Graw Aerobically”, Approved Standard M07-A9, edition 2012, with modifications as described by Igumnova et al (Bioorg Med Chem, 2016, 24 (22), 5884-5894).
Briefly, the bacterial inoculum was adjusted to approximately 2.5-3×10^4 cells/mL in Mueller-Hinton broth (MHB, Difco Laboratories, USA), and incubated in a ratio of 1:1 with test derivatives in polystyrene 96-well flat-bottom microplates (NUNC, Roskilde, Denmark). Positive growth control (without test derivatives) and negative control (without bacteria) were included. The reference antibiotic was oxytetracycline hydrochloride (Sigma Aldrich, Saint Louis, Mo., USA). The microplates were incubated in an EnVision microplate reader (Perkin-Elmer, Turku, Finland) placed in an incubator set to 35° C. for 48 h. The MIC value was defined as the lowest concentration of derivative resulting in no bacterial growth as determined by OD600 measurement. All derivatives were tested in three parallels.

human RBCs = experiment: Determination of haemolytic activity
Procedure, shortened: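 Heparinized fresh blood was washed in PBS, and RBCs were used at 1% v/v final with test compounds at 500–4 μM (DMSO ≤1%) for 1 h at 37 °C. Haemoglobin release was read at 545 nm and expressed relative to 1% Triton X-100 after PBS background correction. EC50 values are means of three independent experiments.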

[3] = reference strains, range, read-out: MIC values against the Gram-negative bacteria E. coli and P. aeruginosa
[4] = range over S. aureus, C. glutamicum, E. coli, P. aeruginosa reference strains, read-out: MIC values against all the reference strains

SMILES	MIC [1]	MIC [2, 3]	MIC [2, 4]	RBC toxicity compared to the amine 7(i) (human RBCs)
N=C(N)NCCCCN1C(=O)N(CCCCNC(=N)N)C(=O)C(Cc2ccc3ccccc3c2)(Cc2ccc3ccccc3c2)C1=O [8(iv), 1,1′-(4,4′-(5,5-bis(naphthalen-2-ylmethyl)-2,4,6-trioxodihydropyrimidine-1,3(2H,4H)-diyl)bis(butane-4,1-diyl))-diguanidine]	0.25 µg/mL (≈ 0.394 µM)			
CC(C)(C)c1cc(CC2(Cc3cc(C(C)(C)C)cc(C(C)(C)C)c3)C(=O)N(CCCCNC(=N)N)C(=O)N(CCCCNC(=N)N)C2=O)cc(C(C)(C)C)c1 [8(iii), 1,1′-(4,4′-(5,5-bis(3,5-di-tert-butylbenzyl)-2,4,6-trioxodihydropyrimidine-1,3(2H,4H)-diyl)bis(butane-4,1-diyl))-diguanidine]	0.25 µg/mL (≈ 0.329 µM)	4 µg/mL (≈ 5.27 µM)		
N=C(N)NCCCCN1C(=O)N(CCCCNC(=N)N)C(=O)C(Cc2ccc(F)c3ccccc23)(Cc2ccc(F)c3ccccc23)C1=O [8(v), 1,1′-(4,4′-(5,5-bis((4-fluoronaphthalen-1-yl)methyl)-2,4,6-trioxodihydropyrimidine-1,3(2H,4H)-diyl)bis(butane-4,1-diyl))diguanidine]	0.25 µg/mL (≈ 0.373 µM)	1 to 4 µg/mL (≈ 1.49 to 5.96 µM)		
NCCCCN1C(=O)N(CCCCN)C(=O)C(Cc2ccc(F)c3ccccc23)(Cc2ccc(F)c3ccccc23)C1=O [7(v), 1,3-bis(4-aminobutyl)-5,5-bis((4-fluoronaphtalen-1-yl)methyl)pyrimidin-2,4,6(1H,3H,5H)-trione]	1 µg/mL (≈ 1.7 µM)			
NCCCCN1C(=O)N(CCCCN)C(=O)C(Cc2cc(Br)cc(Br)c2)(Cc2cc(Br)cc(Br)c2)C1=O [7(ii)]	1 µg/mL (≈ 1.31 µM)		1 to 8 µg/mL (≈ 1.31 to 10.4 µM)	
CC(C)(C)c1ccc(CC2(Cc3ccc(C(C)(C)C)cc3)C(=O)N(CCCCNC(=N)N)C(=O)N(CCCCNC(=N)N)C2=O)cc1 [Compound 8(i), 1,1′-(4,4′-(5,5-bis(4-tert-butylbenzyl)-2,4,6-trioxodihydropyrimidine-1,3(2H,4H)-diyl)bis(butane-4,1-diyl))diguanidine]	< 0.13 µg/mL	1 to 4 µg/mL (≈ 1.55 to 6.18 µM)		twofold increased RBC toxicity
CC(C)(C)c1ccc(CC2(Cc3ccc(C(C)(C)C)cc3)C(=O)N(CCCCN)C(=O)N(CCCCN)C2=O)cc1 [Compound 7(i), 1,3-bis(4-aminobutyl)-5,5-bis(4-tertbutylbenzyl) pyrimidin-2,4,6(1H,3H,5H)-trione]	1 µg/mL (≈ 1.78 µM)		1 to 8 µg/mL (≈ 1.78 to 14.2 µM)	
CC(C)(C)c1cc(CC2(Cc3cc(C(C)(C)C)cc(C(C)(C)C)c3)C(=O)N(CCCCN)C(=O)N(CCCCN)C2=O)cc(C(C)(C)C)c1 [7(iii), 1,3-bis(4-aminobutyl)-5,5-bis(3,5-di-tert-butylbenzyl)-pyrimidin-2,4,6(1H,3H,5H)-trione]	0.25 µg/mL (≈ 0.37 µM)		0.25 to 4 µg/mL (≈ 0.37 to 5.93 µM)	
NCCCCN1C(=O)N(CCCCN)C(=O)C(Cc2ccc3ccccc3c2)(Cc2ccc3ccccc3c2)C1=O [7(iv), 1,3-bis(4-aminobutyl)-5,5-bis(naphtalen-2-yl-methyl)-pyrimidin-2,4,6(1H,3H,5H)-trione]	1 µg/mL (≈ 1.82 µM)			
NCCCCN1C(=O)N(CCCCN)C(=O)C(Cc2cc(C(F)(F)F)cc(C(F)(F)F)c2)(Cc2cc(C(F)(F)F)cc(C(F)(F)F)c2)C1=O [7(vi)]	1 µg/mL (≈ 1.38 µM)			
N=C(N)NCCCCN1C(=O)N(CCCCNC(=N)N)C(=O)C(Cc2cc(Br)cc(Br)c2)(Cc2cc(Br)cc(Br)c2)C1=O [8(ii), 1,1′-(4,4′-(5,5-bis(3,5-dibromobenzyl)-2,4,6-trioxodihydropyrimidine-1,3(2H,4H)-diyl)bis(butane-4,1-diyl))diguanidine]	0.25 µg/mL (≈ 0.294 µM)	1 to 4 µg/mL (≈ 1.18 to 4.7 µM)		
